Tests used:
tumor = settings: nude mouse model, Teicher et al. 2002; cited from earlier work
GBM-derived neurospheres = experiment: Neurosphere growth with growth factors; type: cell-based, human; settings: for neurosphere growth: maximal concentration of 20 ng/ml
From the text: Previously described GBM cell lines were used for the instant in vitro studies (Hartman et al., Internat. J. One. 15: 975-982 (1999)). To create neurosphere cultures, two cell lines (G63 and G69) were sorted using a CD133 cell isolation kit (Miltenyi Biotech) according to manufacturer's instructions, and maintained in culture as described for primary GBM specimens (Singh et al., Nature 432: 396-401 (2004)). All neurosphere cultures were maintained in Neurobasal medium (Invitrogen) with N2 supplement (Invitrogen) and NSF1 (Cambrex). For growth studies, both EGF and IGF2 were added at a concentration of 20 ng/ml. Neurospheres of primary GBM were obtained as unsorted dissociate of primary tumor (from Drs. M. Westphal and K. Lamszuz, Univ. Hamburg), expanded and maintained under the same conditions described for cel line-derived neurospheres. Neurosphere assays were performed in triplicate.
When IGF2-dependent neurospheres were disassociated and subjected to a proliferation assay using increasing concentrations of EGF or IGF2, both growth factors induced rapid growth. The growth rate based on growth factor dosage produced an identical growth curve for each growth factor (FIG. 3B).

| Molecule | anti-tumor effect (tumor) | neurosphere growth (GBM-derived neurospheres) | proliferative response of neurospheres compared with EGF (GBM-derived neurospheres; neurosphere system) |
| --- | --- | --- | --- |
| Cl.Cn1cc(C2=C(c3cn(C4CCN(Cc5ccccn5)CC4)c4ccccc34)C(=O)NC2=O)c2ccccc21 [317615-HCL] | anti-tumor effect | – | – |
| EGF: growth factor added to neurosphere cultures (NSDSECPLSHDGYCLHDGVCMYIEALDKYACNCVVGYIGERCQYRDLKWWELR; Epidermal growth factor; UniProt P01133 971-1023, looked up) | – | proliferated rapidly | – |
| IGF2: Recombinant IGF2 (R&D Systems, 292-G2), growth factor | – | proliferated rapidly | indistinguishable from the response to EGF |

— patent publication US20090269351A1, “METHOD OF DIAGNOSING AND TREATING GLIOMA” (Genentech, Inc., priority 2006, published 2009)
